According to PubChem BioAssay AID2060512 (Molecular Pharmacology Branch, DTP, NCI, 2025):

System: 186277-243-T-J2-PDC complex spheroid viability
Test: Anticancer human tumor 186277-243-T-J2-PDC patient-derived colon adenocarcinoma cell line growth inhibition [GQUAD]
Conditions: for IC50: curve of first compound; for viability, T/C: stronger effect = lower value
How it was run: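 Viability of tumor cells grown as complex spheroids with endothelial and stromal cells, exposed to drug combinations. Top concentration at or near clinical Cmax (else 10 microM), diluted in half-log increments.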

[1] = second compound 0.0316 µM, first compound 0.0316 µM
[2] = second compound 0.0316 µM, first compound 0.1 µM
[3] = second compound 0.0316 µM, first compound 0.316 µM
[4] = second compound 0.0316 µM, first compound 1 µM
[5] = second compound 0.0316 µM, first compound 3.16 µM
[6] = second compound 0.0316 µM, first compound 10 µM
[7] = second compound 0.1 µM, first compound 0.0316 µM
[8] = second compound 0.1 µM, first compound 0.1 µM
[9] = second compound 0.1 µM, first compound 0.316 µM
[10] = second compound 0.1 µM, first compound 1 µM
[11] = second compound 0.1 µM, first compound 3.16 µM
[12] = second compound 0.1 µM, first compound 10 µM
[13] = second compound 0.316 µM, first compound 0.0316 µM
[14] = second compound 0.316 µM, first compound 0.1 µM
[15] = second compound 0.316 µM, first compound 0.316 µM
[16] = second compound 0.316 µM, first compound 1 µM
[17] = second compound 0.316 µM, first compound 3.16 µM
[18] = second compound 0.316 µM, first compound 10 µM
[19] = second compound 1 µM, first compound 0.0316 µM
[20] = second compound 1 µM, first compound 0.1 µM
[21] = second compound 1 µM, first compound 0.316 µM
[22] = second compound 1 µM, first compound 1 µM
[23] = second compound 1 µM, first compound 3.16 µM
[24] = second compound 1 µM, first compound 10 µM
[25] = second compound 3.16 µM, first compound 0.0316 µM
[26] = second compound 3.16 µM, first compound 0.1 µM
[27] = second compound 3.16 µM, first compound 0.316 µM
[28] = second compound 3.16 µM, first compound 1 µM
[29] = second compound 3.16 µM, first compound 3.16 µM
[30] = second compound 3.16 µM, first compound 10 µM
[31] = second compound 10 µM, first compound 0.0316 µM
[32] = second compound 10 µM, first compound 0.1 µM
[33] = second compound 10 µM, first compound 0.316 µM
[34] = second compound 10 µM, first compound 1 µM
[35] = second compound 10 µM, first compound 3.16 µM
[36] = second compound 10 µM, first compound 10 µM
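Throughout, for viability, T/C: 100% = DMSO vehicle control viability.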

Cc1cccc(N(C)C(=O)C2C(O)CCN2c2nc(C)cc(C(F)(F)F)c2C#N)c1 (stereo unspecified) + Cc1[nH]c2ccc(F)cc2c1-c1nc2c3cccnc3c3ncccc3c2[nH]1
IC50 (second compound 0.0316 µM): > 10000 nM | IC50 (second compound 0.1 µM): > 10000 nM | IC50 (second compound 0.316 µM): > 10000 nM | IC50 (second compound 1 µM): > 10000 nM | IC50 (second compound 3.16 µM): > 10000 nM | IC50 (second compound 10 µM): > 10000 nM | viability, T/C [1]: 104% | viability, T/C [2]: 104% | viability, T/C [3]: 98.2% | viability, T/C [4]: 95.8% | viability, T/C [5]: 88.7% | viability, T/C [6]: 106% | viability, T/C [7]: 104% | viability, T/C [8]: 97.1% | viability, T/C [9]: 100% | viability, T/C [10]: 92.6% | viability, T/C [11]: 95.5% | viability, T/C [12]: 96.3% | viability, T/C [13]: 92.6% | viability, T/C [14]: 105% | viability, T/C [15]: 99.8% | viability, T/C [16]: 98% | viability, T/C [17]: 105% | viability, T/C [18]: 104% | viability, T/C [19]: 128% | viability, T/C [20]: 85.8% | viability, T/C [21]: 98.2% | viability, T/C [22]: 98.3% | viability, T/C [23]: 97% | viability, T/C [24]: 108% | viability, T/C [25]: 127% | viability, T/C [26]: 89.3% | viability, T/C [27]: 98.2% | viability, T/C [28]: 105% | viability, T/C [29]: 99.9% | viability, T/C [30]: 113% | viability, T/C [31]: 90.9% | viability, T/C [32]: 101% | viability, T/C [33]: 109% | viability, T/C [34]: 92.2% | viability, T/C [35]: 98.8% | viability, T/C [36]: 99.9%

COc1cc(C2c3cc4c(cc3C(OC3OC5COC(C)OC5C(O)C3O)C3COC(=O)C23)OCO4)cc(OC)c1O (stereo unspecified) + Cc1cnc(CNC(=O)c2c(=O)c3ccc(N4CCCN(C)CC4)nc3n3c2sc2ccccc23)cn1
IC50 (second compound 0.0316 µM): 985 nM | IC50 (second compound 0.1 µM): 1080 nM | IC50 (second compound 0.316 µM): 1630 nM | IC50 (second compound 1 µM): < 31.6 nM | IC50 (second compound 3.16 µM): 169 nM | IC50 (second compound 10 µM): < 31.6 nM | viability, T/C [1]: 105% | viability, T/C [2]: 93.9% | viability, T/C [3]: 78.2% | viability, T/C [4]: 45.1% | viability, T/C [5]: 33.3% | viability, T/C [6]: 15.8% | viability, T/C [7]: 70.8% | viability, T/C [8]: 82.5% | viability, T/C [9]: 69.3% | viability, T/C [10]: 46.5% | viability, T/C [11]: 37.3% | viability, T/C [12]: 20% | viability, T/C [13]: 80.8% | viability, T/C [14]: 69.8% | viability, T/C [15]: 55.9% | viability, T/C [16]: 53.7% | viability, T/C [17]: 53.3% | viability, T/C [18]: 20.3% | viability, T/C [19]: 43.6% | viability, T/C [20]: 50.8% | viability, T/C [21]: 57.5% | viability, T/C [22]: 44.9% | viability, T/C [23]: 42.3% | viability, T/C [24]: 20% | viability, T/C [25]: 50.9% | viability, T/C [26]: 51% | viability, T/C [27]: 51.4% | viability, T/C [28]: 38.8% | viability, T/C [29]: 30.7% | viability, T/C [30]: 19.6% | viability, T/C [31]: 42.7% | viability, T/C [32]: 35% | viability, T/C [33]: 45% | viability, T/C [34]: 47% | viability, T/C [35]: 33.7% | viability, T/C [36]: 17.7%

CCc1c2c(nc3ccc(O)cc13)-c1cc3c(c(=O)n1C2)COC(=O)[C@]3(O)CC + Cc1cnc(CNC(=O)c2c(=O)c3ccc(N4CCCN(C)CC4)nc3n3c2sc2ccccc23)cn1
IC50 (second compound 0.0316 µM): 5.88 nM | IC50 (second compound 0.1 µM): 7.11 nM | IC50 (second compound 0.316 µM): 3.96 nM | IC50 (second compound 1 µM): < 0.999 nM | IC50 (second compound 3.16 µM): < 0.999 nM | IC50 (second compound 10 µM): < 0.999 nM | viability, T/C (second compound 0.0316 µM, first compound 0.000999 µM): 90.8% | viability, T/C (second compound 0.0316 µM, first compound 0.00316 µM): 56% | viability, T/C (second compound 0.0316 µM, first compound 0.00999 µM): 46.3% | viability, T/C [1]: 27.8% | viability, T/C (second compound 0.0316 µM, first compound 0.0999 µM): 23.3% | viability, T/C [3]: 17.6% | viability, T/C (second compound 0.1 µM, first compound 0.000999 µM): 79.3% | viability, T/C (second compound 0.1 µM, first compound 0.00316 µM): 56.8% | viability, T/C (second compound 0.1 µM, first compound 0.00999 µM): 53.2% | viability, T/C [7]: 24.5% | viability, T/C (second compound 0.1 µM, first compound 0.0999 µM): 23.4% | viability, T/C [9]: 13.9% | viability, T/C (second compound 0.316 µM, first compound 0.000999 µM): 60.5% | viability, T/C (second compound 0.316 µM, first compound 0.00316 µM): 53.7% | viability, T/C (second compound 0.316 µM, first compound 0.00999 µM): 40.9% | viability, T/C [13]: 31.9% | viability, T/C (second compound 0.316 µM, first compound 0.0999 µM): 30.1% | viability, T/C [15]: 16.9% | viability, T/C (second compound 1 µM, first compound 0.000999 µM): 44.8% | viability, T/C (second compound 1 µM, first compound 0.00316 µM): 37.6% | viability, T/C (second compound 1 µM, first compound 0.00999 µM): 38.3% | viability, T/C [19]: 31.8% | viability, T/C (second compound 1 µM, first compound 0.0999 µM): 29.5% | viability, T/C [21]: 4.66% | viability, T/C (second compound 3.16 µM, first compound 0.000999 µM): 33.5% | viability, T/C (second compound 3.16 µM, first compound 0.00316 µM): 39.9% | viability, T/C (second compound 3.16 µM, first compound 0.00999 µM): 36.5% | viability, T/C [25]: 27.9% | viability, T/C (second compound 3.16 µM, first compound 0.0999 µM): 25.4% | viability, T/C [27]: 1.29% | viability, T/C (second compound 10 µM, first compound 0.000999 µM): 40.2% | viability, T/C (second compound 10 µM, first compound 0.00316 µM): 32.5% | viability, T/C (second compound 10 µM, first compound 0.00999 µM): 31.1% | viability, T/C [31]: 24.7% | viability, T/C (second compound 10 µM, first compound 0.0999 µM): 23.3% | viability, T/C [33]: 0.64%
